Experiments:
[1] = molecular target: T1, HIV-1 protease (Human immunodeficiency virus type 1 group M subtype B, UniProt P04585); assay: HIV protease enzyme inhibition, fluorometric assay of Toth and Marshall; assay type: biochemical; details: Ki
T1 construct: A simple, continuous fluorometric assay for HIV protease
Description: The inhibitory potencies of acyclic and cyclic inhibitors were measured by the assay protocol of Toth and Marshall (Toth, M. V.; Marshall, G. R. A simple, continuous fluorometric assay for HIV protease. Int. J. Pep. Protien Res. 1990, 36, 544-55).

[2] = tested on: HIV-1NL4-3; assay: in vitro selection of PI-resistant HIV-1 variants in MT-4 cells; assay type: cell-based; details: HIV-1NL4-3 in MT-4 cells, increasing drug concentrations
From the text: The culture supernatants were harvested on day 7 and used to infect fresh MT-4 cells for the next round of culture in the presence of increasing concentrations of each drug.

[3] = tested on: MT-2 cells; assay: cytotoxicity CC50; assay type: cell-based, Human; details: MT-2 cells

SMILES	Ki [1] [nM]	Ki ([1]; Table 2) [nM]	passage by which HIV-1 variants replicating in the presence of 1 μM drug emerged [2] [passages]	CC50 [3] [µM]
COc1ccc2c(c1)OCCCC=CCCCCN(CC(O)C(Cc1ccccc1)NC(=O)OC1COC3OCCC13)S2(=O)=O (centres unmarked) [Compound 14b]	< 0.7	< 1	37	
CC(C)CN(C[C@@H](O)[C@H](Cc1ccccc1)NC(=O)O[C@H]1CCOC1)S(=O)(=O)c1ccc(N)cc1 [APV, Amprenavir]			20	
CCC[C@@]1(CCc2ccccc2)CC(O)=C([C@H](CC)c2cccc(NS(=O)(=O)c3ccc(C(F)(F)F)cn3)c2)C(=O)O1 [TPV, Tipranavir]				54.1 ± 2.1

— patent publication US9617276B2, “Compounds and methods for treating AIDS and HIV infections” (priority 2009, dated 2017)
